Results taken from paper PMC10177590, “Canine Intestinal Organoids as a Novel In Vitro Model of Intestinal Drug Permeability: A Proof-of-Concept Study” (Cells, 2023).
Where two headings read alike, the source gives them in different places. Each block holds one compound with its values, some of them ahead of it.

Tests used:
[1] = tested on: canine-colonoid-derived monolayers; assay: Bidirectional transport (Papp) across canine-colonoid-derived monolayers; format: in vitro ADME, dog; conditions: for Papp A→B / Papp B→A: Dog colonoid, read-out: Papp × 10^−6; for Papp B→A: BL→AP pH 7.4/7.4, individual wells
Experimental: (§1) After seven days of culture (Figure 3A), the 3D colonoids were harvested from the Matrigel® using the Corning™ cell recovery solution. Matrigel® plugs were dissociated by repeated pipetting after adding 500 μL of pre-chilled cell recovery solution into each well, and the plate was incubated for 30 min at 4 °C to dissolve the Matrigel®. The mixture was then transferred to a 15 mL tube and centrifuged at 100× g for 5 min at 4 °C. The organoid pellet was resuspended in 1 mL TrypLE Express and incubated at 37 °C for 10 min with shaking. To stop the TrypLE action, 6 mL of DMEM/F12 was added to the mixture before centrifugation at 100× g for 5 min at 4 °C. The supernatant was removed, and the pellet was resuspended with CMGF+ media. The harvested colonoid cell suspension was filtered through a sterile cell strainer (40 µm nylon mesh, Thermo Fisher Scientific) to obtain a single-cell suspension. The viability of dissociated cells was assessed by the trypan blue exclusion test [58, 59], and cells were counted manually using a hemocytometer (Hausser Scientific, Horsham, PA, USA). The Transwell™ inserts were pre-coated with Matrigel® (100 μg/mL; Corning®) and rat tail collagen I (30 μg/mL; Fisher Scientific) to promote adhesion, growth, and differentiation in CMGF+ media at 37 °C for 1 h. Dissociated colonoid cells (Passages #15–20) were seeded at a density of 100,000 cells/cm^2 in pre-coated inserts and allowed to grow and differentiate in the presence of CMGF+ media for 10 to 12 days before the experiments (Figure 3B). The CMGF+ culture medium was changed every other day. The structural integrity of the cell monolayer was monitored every other day for up to two weeks by phase-contrast microscopy.
(§2) All transport experiments were conducted at room temperature following the conditions outlined in earlier reports during sampling and incubation [66, 67, 68]. The culture media were aspirated from both AP (0.2 mL) and BL (0.7 mL) chambers. For both the canine colonoid and the Caco-2 monolayer, the BL chambers with HBSS buffer at pH 7.4 (0.7 mL) and the AP chambers with appropriate HBSS buffer at pH 6.8 or 7.4 (0.2 mL) (canine) or pH 6.8 (0.2 mL) (Caco-2 cells) were rinsed and equilibrated at room temperature for 30 min. Two to three wells per drug/pH/direction were used for data generation.
(§3) After Caco-2 and canine colonoid monolayers were equilibrated in the transport buffer for 30 min, the buffer was aspirated from the AP (0.2 mL) and BL (0.7 mL) chambers. The media of the AP chamber were replaced with 0.2 mL of the drug solution prepared in an appropriate transport buffer. HBSS buffer with pH 7.4 was added to the BL chambers. At pre-defined time points (15, 30, 45, 60, 90, and 120 min), samples of 100 µL buffer were collected from the receiver chamber (BL) and replaced with the same volume (i.e., 100 µL) of transport buffer at pH 7.4. For the AP side, drug concentrations of the donor solution were measured prior to introduction into the well and at the end of the study (120 min). In so doing, no buffer replacement was needed. All study samples were labeled and stored at −80 °C until further analysis.
(§4) The same procedures described above for studying AP→BL permeability were followed when studying BL→AP, with the only difference being that the donor chamber was now the BL side and the receiver chamber was now the AP side. At pre-determined time intervals (15, 30, 45, 60, 90, and 120 min), 100 µL of buffer was removed from the receiver chamber (AP) and replaced with the same volume (i.e., 100 µL) of transport buffer with the specified pH. The collected samples were stored at −80 °C until further analysis by mass spectrometry (details below).

[2] = low permeability, high solubility; cited from earlier work
[3] = Bidirectional transport (Papp) across Caco-2 cell monolayers; format: in vitro ADME, human; conditions: human; for Papp A→B at 120 min, 0.04 mg/mL: Caco-2, pH 6.8, 0.04 mg/mL (58.4 μM); for Papp A→B at 120 min, 0.4 mg/mL: Caco-2, pH 6.8, 0.4 mg/mL (584.1 μM); for Papp B→A at 120 min, 0.04 mg/mL: Caco-2, pH 7.4, 0.04 mg/mL (58.4 μM); for Papp B→A at 120 min, 0.4 mg/mL: Caco-2, pH 7.4, 0.4 mg/mL (584.1 μM); for Papp A→B at 120 min, 1 mg/mL: Caco-2, pH 6.8, 1 mg/mL (3380 μM); for Papp B→A at 120 min, 1 mg/mL: Caco-2, pH 7.4, 1 mg/mL (3380 μM)
Experimental: (§5) The harvested Caco-2 cell suspension was then filtered through a sterile cell strainer (40 µm nylon mesh, Thermo Fisher Scientific) to obtain a single-cell suspension. Caco-2 cell viability and concentration were determined by a trypan blue exclusion test [57, 58]. Single Caco-2 cells (passages 50–55) were seeded at a density of 75,000 cells/cm^2 in the apical chamber of the insert and cultured in CCCM media. The culture medium in both apical and basolateral chambers was changed every other day. In the transport studies, the monolayers were utilized 18 to 20 days after plating.
as §2, §3, §4
(§6) The uncorrected Papp estimates for the three drugs of interest (Papp-uncorrected, cm/s) were calculated as follows (Equation (2)) [7]: (2) Papp-uncorrected =VR/(A×C0)×dC/dt where VR is the volume in the receiver chamber (mL), A is the surface area of the filter ( 0.33 cm^2 ), C0 is the initial drug concentration (µM) in the donor chamber, and dC/dt is the maximum slope of the line defining the cumulative drug concentration (mg/mL) vs. time (min) in the receiver compartment. […] The estimated concentrations in the receiver compartment were corrected for drug removed during prior samples.
(§7) These Papp value estimates were further corrected for the percent recovery (Rec (%)) in each well [71, 72] as follows (Equation (3)): (3) Rec (%) =mg donor hr 2+total mg receiver hr 2/mg drug introduced into the donor compartment at hr 0
(§8) The corrected Papp estimates reported herein were, therefore, calculated as follows (Equation (4)):(4) Papp= Papp−uncorrected /Rec (%)

[4] = tested on: Caco-2 cell monolayers; assay: as above; format: in vitro ADME, human
Experimental: as §5, §2, §3, §4, §6, §7, §8

[5] = Bidirectional transport (Papp) across canine-colonoid-derived monolayers; format: in vitro ADME, dog; conditions: dog, Dog colonoid
Experimental: as §1, §2, §3, §4

[6] = parameters: method as in earlier work; conditions: ref 65 (PubChem), cited from earlier work
[7] = tested on: P-gp; conditions: cited from earlier work
[8] = Human Caco-2, AP→BL pH 6.8/7.4, N = 2, read-out: Papp × 10^−6 Avg
[9] = Human Caco-2, AP→BL pH 6.8/7.4, individual wells, read-out: Papp × 10^−6
[10] = Human Caco-2, BL→AP pH 7.4/7.4, N = 2, read-out: Papp × 10^−6 Avg
[11] = Human Caco-2, BL→AP pH 7.4/7.4, individual wells, read-out: Papp × 10^−6

drug in the receiver compartment ([1]; 2.0 mg/mL, canine colonoids, irrespective of pH or direction (AP→BL or BL→AP)): not detectable
Structure (SMILES): CC(C)NCC(O)COc1ccc(CC(N)=O)cc1 (centres unmarked) [Atenolol]
BCS Class [2]: Class III

Papp A→B at 120 min, 0.04 mg/mL [3, 8]: 15.3 ×10⁻⁶ cm/s | Papp A→B at 120 min, 0.04 mg/mL [3, 9]: 17.5 ×10⁻⁶ cm/s | Papp A→B at 120 min, 0.4 mg/mL [3, 8]: 17.9 ×10⁻⁶ cm/s | Papp A→B at 120 min, 0.4 mg/mL [3, 9]: 19.3 ×10⁻⁶ cm/s | Papp B→A at 120 min, 0.04 mg/mL [3, 10]: 17.7 ×10⁻⁶ cm/s | Papp B→A at 120 min, 0.04 mg/mL [3, 11]: 16.3 ×10⁻⁶ cm/s | Papp B→A at 120 min, 0.4 mg/mL [3, 10]: 13.1 ×10⁻⁶ cm/s | Papp B→A at 120 min, 0.4 mg/mL [3, 11]: 13.8 ×10⁻⁶ cm/s | Papp × 10^−6 ([4]; 0.04 mg/mL (58.4 μM), Human Caco-2, AP→BL pH 6.8/7.4, individual wells): 13.13 × 10^−6 cm/s | Papp × 10^−6 ([4]; 0.04 mg/mL (58.4 μM), Human Caco-2, BL→AP pH 7.4/7.4, individual wells): 19.03 × 10^−6 cm/s | Papp × 10^−6 ([4]; 0.4 mg/mL (584.1 μM), Human Caco-2, AP→BL pH 6.8/7.4, individual wells): 16.45 × 10^−6 cm/s | Papp × 10^−6 ([4]; 0.4 mg/mL (584.1 μM), Human Caco-2, BL→AP pH 7.4/7.4, individual wells): 12.37 × 10^−6 cm/s | Papp A→B at 120 min, 0.04 mg/mL ([5]; pH 6.8, 0.04 mg/mL (58.4 μM), AP→BL pH 6.8/7.4, N = 2, read-out: Papp × 10^−6 Avg): 17.7 ×10⁻⁶ cm/s | Papp A→B at 120 min, 0.04 mg/mL ([5]; pH 6.8, 0.04 mg/mL (58.4 μM), AP→BL pH 6.8/7.4, individual wells, read-out: Papp × 10^−6): 16.8 ×10⁻⁶ cm/s | Papp A→B at 120 min, 0.4 mg/mL ([5]; pH 6.8, 0.4 mg/mL (584.1 μM) ± FITC-dextran 200 µg/mL, AP→BL pH 6.8/7.4, individual wells, read-out: Papp × 10^−6): 8.33 ×10⁻⁶ cm/s | Papp A→B at 120 min, 0.4 mg/mL ([5]; pH 6.8, 0.4 mg/mL (584.1 μM) ± FITC-dextran 200 µg/mL, AP→BL pH 6.8/7.4, read-out: Papp × 10^−6 Avg): 8.72 ×10⁻⁶ cm/s | Papp A→B at 120 min, 0.04 mg/mL ([5]; pH 7.4, 0.04 mg/mL (58.4 μM), AP→BL pH 7.4/7.4, N = 2, read-out: Papp × 10^−6 Avg): 13.5 ×10⁻⁶ cm/s | Papp A→B at 120 min, 0.04 mg/mL ([5]; pH 7.4, 0.04 mg/mL (58.4 μM), AP→BL pH 7.4/7.4, individual wells, read-out: Papp × 10^−6): 13.4 ×10⁻⁶ cm/s | Papp B→A at 120 min, 0.04 mg/mL ([5]; pH 7.4, 0.04 mg/mL (58.4 μM), BL→AP pH 7.4/7.4, N = 2, read-out: Papp × 10^−6 Avg): 11.9 ×10⁻⁶ cm/s | Papp B→A at 120 min, 0.04 mg/mL ([5]; pH 7.4, 0.04 mg/mL (58.4 μM), BL→AP pH 7.4/7.4, individual wells, read-out: Papp × 10^−6): 11.2 ×10⁻⁶ cm/s | Papp A→B at 120 min, 0.4 mg/mL ([5]; pH 7.4, 0.4 mg/mL (584.1 μM) ± FITC-dextran 200 µg/mL, AP→BL pH 7.4/7.4, individual wells, read-out: Papp × 10^−6): 9.9 ×10⁻⁶ cm/s | Papp A→B at 120 min, 0.4 mg/mL ([5]; pH 7.4, 0.4 mg/mL (584.1 μM) ± FITC-dextran 200 µg/mL, AP→BL pH 7.4/7.4, read-out: Papp × 10^−6 Avg): 10.5 ×10⁻⁶ cm/s | Papp B→A at 120 min, 0.4 mg/mL ([5]; pH 7.4, 0.4 mg/mL (584.1 μM) ± FITC-dextran 200 µg/mL, BL→AP pH 7.4/7.4, individual wells, read-out: Papp × 10^−6): 9.88 ×10⁻⁶ cm/s | Papp B→A at 120 min, 0.4 mg/mL ([5]; pH 7.4, 0.4 mg/mL (584.1 μM) ± FITC-dextran 200 µg/mL, BL→AP pH 7.4/7.4, read-out: Papp × 10^−6 Avg): 9.91 ×10⁻⁶ cm/s | Papp A→B ([1]; 0.04 mg/mL (58.4 μM), AP→BL pH 6.8/7.4, individual wells): 18.5 ×10⁻⁶ cm/s | Papp A→B ([1]; 0.04 mg/mL (58.4 μM), AP→BL pH 7.4/7.4, individual wells): 13.5 ×10⁻⁶ cm/s | Papp B→A ([1]; 0.04 mg/mL (58.4 μM)): 12.7 ×10⁻⁶ cm/s | Papp A→B ([1]; 0.4 mg/mL (584.1 μM) ± FITC-dextran 200 µg/mL, AP→BL pH 6.8/7.4, individual wells): 9.1 ×10⁻⁶ cm/s | Papp A→B ([1]; 0.4 mg/mL (584.1 μM) ± FITC-dextran 200 µg/mL, AP→BL pH 7.4/7.4, individual wells): 11.2 ×10⁻⁶ cm/s | Papp B→A ([1]; 0.4 mg/mL (584.1 μM) ± FITC-dextran 200 µg/mL): 9.94 ×10⁻⁶ cm/s
Structure (SMILES): COCCc1ccc(OCC(O)CNC(C)C)cc1 (centres unmarked) [Metoprolol]
Aqueous Solubility (25 °C) ([6]; 25 °C): >1000 mg/mL | Log P [6]: 2.15 | P-gp substrate status [7]: not a substrate for P-gp transport

Papp A→B at 120 min, 1 mg/mL [3, 8]: 12.4 ×10⁻⁶ cm/s | Papp A→B at 120 min, 1 mg/mL [3, 9]: 12.1 ×10⁻⁶ cm/s | Papp B→A at 120 min, 1 mg/mL [3, 10]: 11.9 ×10⁻⁶ cm/s | Papp B→A at 120 min, 1 mg/mL [3, 11]: 11.4 ×10⁻⁶ cm/s | Papp × 10^−6 ([4]; 1 mg/mL (3380 μM), Human Caco-2, AP→BL pH 6.8/7.4, individual wells): 12.75 × 10^−6 cm/s | Papp × 10^−6 ([4]; 1 mg/mL (3380 μM), Human Caco-2, BL→AP pH 7.4/7.4, individual wells): 12.43 × 10^−6 cm/s | Papp A→B at 120 min, 1 mg/mL ([5]; pH 6.8, 1 mg/mL (3380 μM), AP→BL pH 6.8/7.4, N = 2, read-out: Papp × 10^−6 Avg): 11.6 ×10⁻⁶ cm/s | Papp A→B at 120 min, 1 mg/mL ([5]; pH 6.8, 1 mg/mL (3380 μM), AP→BL pH 6.8/7.4, individual wells, read-out: Papp × 10^−6): 12.2 ×10⁻⁶ cm/s | Papp A→B at 120 min, 1 mg/mL ([5]; pH 7.4, 1 mg/mL (3380 μM), AP→BL pH 7.4/7.4, N = 2, read-out: Papp × 10^−6 Avg): 12 ×10⁻⁶ cm/s | Papp A→B at 120 min, 1 mg/mL ([5]; pH 7.4, 1 mg/mL (3380 μM), AP→BL pH 7.4/7.4, individual wells, read-out: Papp × 10^−6): 12 ×10⁻⁶ cm/s | Papp B→A at 120 min, 1 mg/mL ([5]; pH 7.4, 1 mg/mL (3380 μM), BL→AP pH 7.4/7.4, N = 2, read-out: Papp × 10^−6 Avg): 11.5 ×10⁻⁶ cm/s | Papp B→A at 120 min, 1 mg/mL ([5]; pH 7.4, 1 mg/mL (3380 μM), BL→AP pH 7.4/7.4, individual wells, read-out: Papp × 10^−6): 10.9 ×10⁻⁶ cm/s | Papp A→B ([1]; 1 mg/mL (3380 μM), AP→BL pH 6.8/7.4, individual wells): 11.1 ×10⁻⁶ cm/s | Papp A→B ([1]; 1 mg/mL (3380 μM), AP→BL pH 7.4/7.4, individual wells): 12 ×10⁻⁶ cm/s | Papp B→A ([1]; 1 mg/mL (3380 μM)): 12 ×10⁻⁶ cm/s
Structure (SMILES): CC(C)NCC(O)COc1cccc2ccccc12 (centres unmarked) [Propranolol]
